Assay results: ChEMBL document CHEMBL3421544, “Design, synthesis and biological evaluation of pyridazino[3,4,5-de]quinazolin-3(2H)-one as a new class of PARP-1 inhibitors” (Bioorg Med Chem Lett, 2015)

Key:
PC-12 [1] = assay: Neuroprotective activity against H2O2 -mediated injury in rat PC12 cells assessed as cell survival at 0.01 uM relative to control; assay type: functional; conditions: read-out: Survival
PC-12 [2] = assay: Neuroprotective activity against H2O2 -mediated injury in rat PC12 cells assessed as cell survival at 0.1 uM relative to control; assay type: functional; conditions: read-out: Survival
PC-12 [3] = assay: Neuroprotective activity against H2O2 -mediated injury in rat PC12 cells assessed as cell survival at 1 uM relative to control; assay type: functional; conditions: read-out: Survival
[4] = target: Poly [ADP-ribose] polymerase 1 (Homo sapiens) (UniProt P09874); assay: Inhibition of PARP1 (unknown origin) at 2.8 uM
Poly [ADP-ribose] polymerase 1 (Homo sapiens), sequence (P09874 whole entry): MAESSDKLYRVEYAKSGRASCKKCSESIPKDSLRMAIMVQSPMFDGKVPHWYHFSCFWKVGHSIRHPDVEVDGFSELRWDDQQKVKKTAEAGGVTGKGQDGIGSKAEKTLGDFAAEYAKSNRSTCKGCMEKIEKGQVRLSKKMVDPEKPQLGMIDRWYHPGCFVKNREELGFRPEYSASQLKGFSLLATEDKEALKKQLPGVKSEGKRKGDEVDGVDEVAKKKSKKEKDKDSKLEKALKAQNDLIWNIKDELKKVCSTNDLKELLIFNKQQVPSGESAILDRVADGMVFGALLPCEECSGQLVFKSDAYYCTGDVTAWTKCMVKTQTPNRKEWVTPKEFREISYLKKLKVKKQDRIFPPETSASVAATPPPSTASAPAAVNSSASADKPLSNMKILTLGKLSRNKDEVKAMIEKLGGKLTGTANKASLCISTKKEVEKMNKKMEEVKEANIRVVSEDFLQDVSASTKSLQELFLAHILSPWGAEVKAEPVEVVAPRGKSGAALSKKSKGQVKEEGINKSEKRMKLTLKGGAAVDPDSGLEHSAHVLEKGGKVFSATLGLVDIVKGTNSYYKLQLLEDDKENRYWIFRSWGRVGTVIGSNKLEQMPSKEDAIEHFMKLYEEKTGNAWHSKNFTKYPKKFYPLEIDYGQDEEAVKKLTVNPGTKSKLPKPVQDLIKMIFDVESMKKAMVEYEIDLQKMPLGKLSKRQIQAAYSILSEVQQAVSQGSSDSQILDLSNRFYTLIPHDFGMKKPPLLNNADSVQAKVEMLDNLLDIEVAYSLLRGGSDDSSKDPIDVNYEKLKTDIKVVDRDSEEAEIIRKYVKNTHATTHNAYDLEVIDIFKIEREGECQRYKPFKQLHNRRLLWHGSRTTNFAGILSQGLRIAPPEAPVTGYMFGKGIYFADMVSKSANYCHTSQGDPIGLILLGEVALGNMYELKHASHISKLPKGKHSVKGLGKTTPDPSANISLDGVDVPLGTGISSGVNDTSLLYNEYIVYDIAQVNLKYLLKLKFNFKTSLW

Cc1ccc(C2=Nc3cccc4c(=O)[nH]nc(c34)N2)cc1
viability at 0.01 µM (PC-12 [1]): 70.9% | viability at 0.1 µM (PC-12 [2]): 97.2% | viability at 1 µM (PC-12 [3]): 98%

O=c1[nH]nc2c3c(cccc13)N=C(c1ccccc1)N2
viability at 0.01 µM (PC-12 [1]): 81.6% | viability at 0.1 µM (PC-12 [2]): 98.2% | viability at 1 µM (PC-12 [3]): 88.5%

NC(=O)c1ccccc1
inhibition [4]: 59.3%

COCCOC(=O)C1=C(C)NC(C)=C(C(=O)OC(C)C)C1c1cccc([N+](=O)[O-])c1 (stereo not drawn) [NIMODIPINE]
viability at 1 µM (PC-12 [3]): 90.4%
